The source of these data is US7179825B2, “Retinoic acid mimetic anilides” (Janssen Pharmaceutica N.V., priority 1997, dated 2007).

One assay has as its system Ovariectomized rats. Kind of assay: Vaginal keratinization test on ovariectomized rats (Example C.2). Type of assay: in vivo. The following applies: estradiol undecylate induced keratinization, per os once daily on days 1-3, active dose = 50% of rats show complete suppression. The procedure, abridged:
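Ovariectomized rats given s.c. estradiol undecylate (100 μg per 100 g body weight in sesame oil), then oral compound once daily on days 1-3 (vehicle PEG 200). Vaginas assessed histologically one day after last dose; lowest active dose (mg/kg) is the dose giving complete keratinization suppression in 50% of rats.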

Assay [1] has as its system metabolism of retinoic acid in human breast cancer cells. Briefly: Inhibition of retinoic acid (RA) metabolism (Example C.1). The class given is cell-based. The following applies: MCF-7 human breast cancer cells, 3H-RA as substrate, concentration needed to reduce the amount of metabolites to 50% of the control. The procedure, abridged:
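MCF-7 cells, pre-stimulated with RA the day before, incubated with ³H-RA substrate and test compound in 1% DMSO. Polar ³H-metabolites separated from unmetabolized RA and counted by scintillation. IC50 is the concentration cutting metabolite formation to 50% of control, with blank run alongside.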

A value given as a limit tells only on which side of the number the result lay.

Consider `CC(C)C(c1ccc(NC(=O)c2cc3ccccc3s2)cc1)n1ccnc1` (racemic) [Compound 168], for which, in the assay on Ovariectomized rats, the “LAD (lowest active dose)” value is on record as 10.00 mg/kg. The IC50 in assay [1] turned out to be 2.36 nM.
Regarding `CC(C)C(c1ccc(NC(=O)c2ccco2)cc1)n1ccnc1` (racemic) [Compound 169], in the assay with Ovariectomized rats, the “LAD (lowest active dose)” value is given as 10.00 mg/kg. In addition, in assay [1], the IC50 is 0.531 nM.
Consider `CC(C)C(c1ccc(NC(=O)c2cnccn2)cc1)n1ccnc1` (racemic) [Compound 170], for which, in the assay on Ovariectomized rats, the “LAD (lowest active dose)” value is recorded as 10.00 mg/kg. In addition, in assay [1], the IC50 came out at 12.2 nM.
For `CC(C)C(c1ccc(NC(=O)c2ccoc2)cc1)n1ccnc1` (racemic) [Compound 172], in that order: 10.00 mg/kg and 3.41 nM.
For `CC(C)C(c1ccc(NC(=O)c2ccsc2)cc1)n1ccnc1` (racemic) [Compound 173], in that order: 10.00 mg/kg and 5.17 nM.
On the same counts, the results for `CC(C)C(c1ccc(NC(=O)C2CCCCC2)cc1)n1ccnc1` (racemic) [Compound 174] are 10.00 mg/kg and 1.6 nM.
On to `C/C(C(=O)Nc1ccc(C(C(C)C)n2ccnc2)cc1)=C(/C)c1ccccc1` (racemic) [Compound 176], for which, in the assay on Ovariectomized rats, the “LAD (lowest active dose)” value was more than 10.00 mg/kg. Further, in assay [1], the half-inhibitory concentration (IC50) is 18.7 nM.
With `CC(C)C(c1ccc(NC(=O)c2ccc3ccccc3c2)cc1)n1ccnc1` (racemic) [Compound 179], in the assay on Ovariectomized rats, the “LAD (lowest active dose)” value is recorded as more than 10.00 mg/kg. The IC50 in assay [1] turned out to be 36.9 nM.
On the same counts, the results for `CC(C)C(c1ccc(NC(=O)C2CCCO2)cc1)n1ccnc1` (racemic) [Compound 181] are 10.00 mg/kg and 14.1 nM.
In the case of `CC(C)C(c1ccc(NC(=O)c2ccc3nnn(C)c3c2)cc1)n1ccnc1` (racemic) [Compound 184], the “LAD (lowest active dose)” value in the assay on Ovariectomized rats is on record as more than 10.00 mg/kg. Also, the IC50 in assay [1] was 5.15 nM.
In the case of `CC(C)C(c1ccc(NC(=O)C2CCOC2)cc1)n1ccnc1` (racemic) [Compound 185], the “LAD (lowest active dose)” value in the assay on Ovariectomized rats is listed as 10.00 mg/kg. For the same molecule, in assay [1], the IC50 was 39.7 nM.
Turning to `CC(C)C(c1ccc(NC(=O)c2csc(-c3ccccc3)n2)cc1)n1ccnc1` (racemic) [Compound 186], the “LAD (lowest active dose)” value in the assay with Ovariectomized rats is more than 10.00 mg/kg. In assay [1], the IC50 is more than 100 nM.
On the same counts, the results for `CC(C)C(c1ccc(NC(=O)C(C)(c2ccccc2)c2ccccc2)cc1)n1ccnc1` (racemic) [Compound 189] are more than 10.00 mg/kg and more than 100 nM.
For `CC(C)C(c1ccc(NC(=O)C2CCCC2)cc1)n1ccnc1` (racemic) [Compound 192], in that order: more than 10.00 mg/kg and 3.34 nM.
For `CC(C)C(c1ccc(NC(=O)C2CCCCC2)cc1)n1ccnc1` (racemic) [Compound 193], in that order: more than 10.00 mg/kg and 12.1 nM.
Take `CC(C)C(c1ccc(NC(=O)c2ccncc2)cc1)n1ccnc1` (racemic) [Compound 194]: in the assay with Ovariectomized rats, the “LAD (lowest active dose)” value amounted to 10.00 mg/kg. Further, the IC50 in assay [1] was determined as 7.07 nM.
As for `CC(C)C(c1ccc(NC(=O)c2cccnc2)cc1)n1ccnc1` (racemic) [Compound 196], the “LAD (lowest active dose)” value in the assay on Ovariectomized rats is recorded as more than 10.00 mg/kg. In assay [1], the IC50 was 22.3 nM.
For `CC(C)C(c1ccc(NC(=O)C2(C)CCCCC2)cc1)n1ccnc1` (racemic) [Compound 201], in that order: more than 10.00 mg/kg and 3.58 nM.
On the same counts, the results for `CC(C)C(c1ccc(NC(=O)C2CCCCC2C)cc1)n1ccnc1` (racemic) [Compound 202] are more than 10.00 mg/kg and 1.84 nM.
On to `CC(C)C(c1ccc(NC(=O)c2ccc3c(c2)CCC(=O)N3)cc1)n1ccnc1` (racemic) [Compound 205], for which the “LAD (lowest active dose)” value in the assay on Ovariectomized rats is reported as more than 10.00 mg/kg. In addition, the half-maximal inhibitory concentration (IC50) in assay [1] came to 11.7 nM.
As to `C/C(C(=O)Nc1ccc(C(C(C)C)n2ccnc2)cc1)=C(/c1ccccc1)c1ccco1` (racemic) [Compound 207], in the assay on Ovariectomized rats, the “LAD (lowest active dose)” value came to 10.00 mg/kg. Moreover, the half-maximal inhibitory concentration (IC50) in assay [1] was 25.4 nM.
In the case of `CC(C)C(c1ccc(NC(=O)c2ccccn2)cc1)n1ccnc1` (racemic) [Compound 208], the “LAD (lowest active dose)” value in the assay with Ovariectomized rats is more than 10.00 mg/kg. The half-inhibitory concentration (IC50) in assay [1] turned out to be 6.43 nM.
As for `CC(C)C(=O)Nc1ccc(C(C(C)C)n2ccnc2)cc1` (racemic) [Compound 209], in the assay with Ovariectomized rats, the “LAD (lowest active dose)” value came out at 5.00 mg/kg. For the same molecule, the IC50 in assay [1] is 8.27 nM.
On the same counts, the results for `CC(C)C(c1ccc(NC(=O)CSCc2ccccc2)cc1)n1ccnc1` (racemic) [Compound 210] are 20.00 mg/kg and 29 nM.
Regarding `CC(C)C(c1ccc(NC(=O)CNc2ccccc2)cc1)n1ccnc1` (racemic) [Compound 213], the “LAD (lowest active dose)” value in the assay with Ovariectomized rats is on record as 20.00 mg/kg. The IC50 in assay [1] stood at 2.07 nM.
With `CC(C)C(c1ccc(NC(=O)c2ccc3ccccc3n2)cc1)n1ccnc1` (racemic) [Compound 215], the “LAD (lowest active dose)” value in the assay with Ovariectomized rats stood at 20.00 mg/kg. In addition, the IC50 in assay [1] stood at 36 nM.
In the case of `CC(C)C(c1ccc(NC(=O)c2cnc3ccccc3n2)cc1)n1ccnc1` (racemic) [Compound 216], the “LAD (lowest active dose)” value with Ovariectomized rats is given as 20.00 mg/kg. In assay [1], the IC50 was 11.7 nM.
As to `CCOC(=O)CCCC(=O)Nc1ccc(C(C(C)C)n2ccnc2)cc1` (racemic) [Compound 219, (±)-ethyl 5-[[4-[1-(1H-imidazol-1-yl)-2-methylpropyl]phenyl]amino]-5-oxopentanoate], the minimal effective dose in the assay with Ovariectomized rats (Rattus norvegicus, po, read-out: LAD (lowest active dose)) is 20 mg/kg. Also, in assay [1] (MCF7), the IC50 was 3.2 nM.
As to `CC(C)C(c1ccc(NC(=O)c2ccc(Br)o2)cc1)n1ccnc1` (racemic) [Compound 220], the “LAD (lowest active dose)” value with Ovariectomized rats is given as 20.00 mg/kg. Further, the IC50 in assay [1] was determined as 1.48 nM.
For `CC(C)C(c1ccc(NC(=O)C(C)(C)Oc2ccc(Cl)cc2)cc1)n1ccnc1` (racemic) [Compound 222], in that order: 20.00 mg/kg and 3.32 nM.
On the same counts, the results for `CC(C)C(c1ccc(NC(=O)CSc2ccccc2)cc1)n1ccnc1` (racemic) [Compound 223] are 5.00 mg/kg and 1.2 nM.
As to `CC(C)C(c1ccc(NC(=O)c2ccnc3ccccc23)cc1)n1ccnc1` (racemic) [Compound 227], the “LAD (lowest active dose)” value in the assay on Ovariectomized rats is more than 10.00 mg/kg. For the same molecule, the IC50 in assay [1] worked out at 7.8 nM.
For `CC(C)C(c1ccc(NC(=O)c2ccc[nH]c2=O)cc1)n1ccnc1` (racemic) [Compound 228], in that order: more than 10.00 mg/kg and 73 nM.
As for `CC(C)C(c1ccc(NC(=O)c2cccc3c2OCCO3)cc1)n1ccnc1` (racemic) [Compound 230], the “LAD (lowest active dose)” value in the assay on Ovariectomized rats was more than 10.00 mg/kg. In addition, the IC50 in assay [1] turned out to be 3.89 nM.
`COc1ccc(C(=O)Nc2ccc(C(C(C)C)n3ccnc3)cc2)cc1OC` (racemic) [Compound 231]: the “LAD (lowest active dose)” value in the assay on Ovariectomized rats is listed as more than 10.00 mg/kg. Further, the IC50 in assay [1] was found to be 1.86 nM.
For `CC(C)C(c1ccc(NC(=O)c2ccc3c(c2)OCO3)cc1)n1ccnc1` (racemic) [Compound 232], in that order: more than 10.00 mg/kg and 1.51 nM.
With `CC(C)C(c1ccc(NC(=O)c2cccc3nccnc23)cc1)n1ccnc1` (racemic) [Compound 233], in the assay with Ovariectomized rats, the “LAD (lowest active dose)” value is more than 10.00 mg/kg. The IC50 in assay [1] turned out to be 2.43 nM.
On the same counts, the results for `CC(C)C(c1ccc(NC(=O)Cc2ccco2)cc1)n1ccnc1` (racemic) [Compound 235] are 5.00 mg/kg and 6.94 nM.
Consider `CC(C)C(c1ccc(NC(=O)C(C)(C)O)cc1)n1ccnc1` (racemic) [Compound 236], for which the “LAD (lowest active dose)” value in the assay on Ovariectomized rats worked out at 5.00 mg/kg. In addition, in assay [1], the IC50 was 98.4 nM.
On the same counts, the results for `CC(C)C(c1ccc(NC(=O)CC2COc3ccccc3O2)cc1)n1ccnc1` (racemic) [Compound 237] are 5.00 mg/kg and 18.2 nM.
On the same counts, the results for `CC(C)C(c1ccc(NC(=O)c2ccc(-c3ccccc3)cc2)cc1)n1ccnc1` (racemic) [Compound 238] are 5.00 mg/kg and more than 100 nM.
On the same counts, the results for `CC(C)C(c1ccc(NC(=O)CSc2ccncc2)cc1)n1ccnc1` (racemic) [Compound 239] are 10.00 mg/kg and 0.728 nM.
Take `CC(C)C(c1ccc(NC(=O)Cc2ccc3ccccc3c2)cc1)n1ccnc1` (racemic) [Compound 240]: the “LAD (lowest active dose)” value in the assay on Ovariectomized rats came to 10.00 mg/kg. Also, in assay [1], the concentration for half-maximal inhibition (IC50) was 1.34 nM.
On to `CC(C)C(c1ccc(NC(=O)c2cnc3ccccc3c2)cc1)n1ccnc1` (racemic) [Compound 241], for which the “LAD (lowest active dose)” value in the assay with Ovariectomized rats stood at 10.00 mg/kg. In addition, the IC50 in assay [1] is 2.59 nM.
For the molecule `Cc1noc(C)c1C(=O)Nc1ccc(C(C(C)C)n2ccnc2)cc1` (racemic) [Compound 242], the “LAD (lowest active dose)” value in the assay with Ovariectomized rats was more than 10.00 mg/kg. The IC50 in assay [1] worked out at 2.82 nM.
For `CC(C)C(c1ccc(NC(=O)C2CSc3ccccc3O2)cc1)n1ccnc1` (racemic) [Compound 243], in that order: 10.00 mg/kg and 35.9 nM.
For `CC(C)C(c1ccc(NC(=O)Cc2cccs2)cc1)n1ccnc1` (racemic) [Compound 244], in that order: 10.00 mg/kg and 2.3 nM.
On the same counts, the results for `CC(C)C(c1ccc(NC(=O)Cc2ccsc2)cc1)n1ccnc1` (racemic) [Compound 245] are 10.00 mg/kg and 2.79 nM.

Broadly, the IC50 is the concentration that inhibits the measured activity by half.
